Measured values published in US9833497B2, “Human originated EGF domain proteins and use of the same” (CHENGDU SOURCEBIO LIMITED-LIABILITY COMPANY, priority 2013, dated 2017).

Columns and labels:
Type in all cases: cell-based
Proteus vulgaris = assay: MIC against Gram-negative bacteria: Proteus vulgaris; conditions: for MIC / MIC (μg/mL) P. vulgaris: P. vulgaris; for MIC against P. vulgaris: Proteus vulgaris, 96-well plate, 37° C., 10 h
How it was run: (§1)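 Two-fold serial dilutions of each purified human EGF domain protein, three replicate wells per level, were combined with bacteria at a final 5×10^5 CFU/mL in LB. Cultures were shaken at 175 rpm, 37° C. The MIC was taken as the minimum concentration preventing growth.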

Serratia marcescens = assay: MIC against Gram-negative bacteria: Serratia marcescens; conditions: for MIC / MIC (μg/mL) S. marcescens: S. marcescens; for MIC against S. marcescens: Serratia marcescens, 96-well plate, 37° C., 10 h
How it was run: as §1

E. coli BL21 = assay: MIC against Gram-negative bacteria: E. coli BL21; conditions: for MIC / MIC (μg/mL) E. coli BL21 / MIC against E. coli BL21: E. coli BL21; for MIC against E. coli BL21: 96-well plate, 37° C., 10 h
How it was run: as §1

Pseudomonas aeruginosa = assay: MIC against Gram-negative bacteria: Pseudomonas aeruginosa; conditions: for MIC / MIC (μg/mL) P. aeruginosa: P. aeruginosa; for MIC against P. aeruginosa: Pseudomonas aeruginosa, 96-well plate, 37° C., 10 h
How it was run: as §1

Aeromonas hydrophila = assay: MIC against Gram-negative bacteria: Aeromonas hydrophila; conditions: for MIC / MIC (μg/mL) A. hydrophila: A. hydrophila; for MIC against A. hydrophila: Aeromonas hydrophila, 96-well plate, 37° C., 10 h
How it was run: as §1

E. coli DH5α = assay: Antibacterial activity: MIC and growth curve against E. coli DH5α in 96-well plate; conditions: minimal inhibitory concentration against E. coli DH5α; 96-well plate, 5×10^5 CFU/mL, 37° C., judged after 8 h
How it was run: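 Log-phase DH5α (OD600 about 0.5, 37° C, 185 rpm in LB) was pelleted, resuspended in fresh LB and seeded at 5×10^5 CFU/mL with recombinant protein at 50, 25 and 12.5 μg/mL (two-fold series), in triplicate. Plates were shaken at 175 rpm, 37° C, and OD600 was read every 30 min. MIC was the lowest concentration with no growth.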

Enterobacter cloacae = assay: MIC against Gram-negative bacteria: Enterobacter cloacae; conditions: for MIC / MIC (μg/mL) E. cloacae: E. cloacae; for MIC against E. cloacae: Enterobacter cloacae, 96-well plate, 37° C., 10 h
How it was run: as §1

Moraxella catarrhalis = assay: MIC against Gram-negative bacteria: Moraxella catarrhalis; conditions: for MIC / MIC (μg/mL) M. catarrhalis: M. catarrhalis; for MIC against M. catarrhalis: Moraxella catarrhalis, 96-well plate, 37° C., 10 h
How it was run: as §1

Citrobacter diversus = assay: MIC against Gram-negative bacteria: Citrobacter diversus; conditions: for MIC / MIC (μg/mL) C. diversus: C. diversus; for MIC against C. diversus: Citrobacter diversus, 96-well plate, 37° C., 10 h
How it was run: as §1

Klebsiella pneumonia = assay: MIC against Gram-negative bacteria: Klebsiella pneumonia; conditions: for MIC / MIC (μg/mL) K. pneumonia: K. pneumonia; for MIC against K. pneumonia: Klebsiella pneumonia, 96-well plate, 37° C., 10 h
How it was run: as §1

Proteus mirabilis = assay: MIC against Gram-negative bacteria: Proteus mirabilis; conditions: for MIC / MIC (μg/mL) P. mirabilis: P. mirabilis; for MIC against P. mirabilis: Proteus mirabilis, 96-well plate, 37° C., 10 h
How it was run: as §1

[1] = 10 h cultivation at 37° C., 5×10^5 CFU/mL
[2] = 10 h cultivation at 37° C., 5×10^5 CFU/mL, two-fold serial dilution

PRT951 (WTDACLSHPCANGSTCTTVANQFSCKCLTGFTGQKCE; listed as Homo sapiens)
MIC (Proteus vulgaris; 10 h cultivation at 37° C.): 50 µg/mL
MIC (Serratia marcescens; 10 h cultivation at 37° C.): 100 µg/mL
MIC (E. coli BL21; 10 h cultivation at 37° C.): 25 µg/mL
MIC (Pseudomonas aeruginosa; 10 h cultivation at 37° C.): 25 µg/mL
MIC (Aeromonas hydrophila; 10 h cultivation at 37° C.): 12.5 µg/mL
MIC (E. coli DH5α): 25 µg/mL
MIC (Enterobacter cloacae; 10 h cultivation at 37° C.): 12.5 µg/mL
MIC (Moraxella catarrhalis; 10 h cultivation at 37° C.): 12.5 µg/mL
MIC (Citrobacter diversus; 10 h cultivation at 37° C.): 25 µg/mL
MIC (Klebsiella pneumonia; 10 h cultivation at 37° C.): 25 µg/mL
MIC (Proteus mirabilis; 10 h cultivation at 37° C.): 25 µg/mL

PRT1025 (GHNYCSVNNGGCTHLCLATPGSRTCRCPDNTLGVDCI; listed as Homo sapiens)
MIC (Proteus vulgaris; 10 h cultivation at 37° C.): 25 µg/mL
MIC (Serratia marcescens; 10 h cultivation at 37° C.): 50 µg/mL
MIC (E. coli BL21; 10 h cultivation at 37° C.): 25 µg/mL
MIC (Pseudomonas aeruginosa; 10 h cultivation at 37° C.): 12.5 µg/mL
MIC (Aeromonas hydrophila; 10 h cultivation at 37° C.): 100 µg/mL
MIC (E. coli DH5α): 50 µg/mL
MIC (Enterobacter cloacae; 10 h cultivation at 37° C.): 50 µg/mL
MIC (Moraxella catarrhalis; 10 h cultivation at 37° C.): 25 µg/mL
MIC (Citrobacter diversus; 10 h cultivation at 37° C.): 50 µg/mL
MIC (Klebsiella pneumonia; 10 h cultivation at 37° C.): 25 µg/mL
MIC (Proteus mirabilis; 10 h cultivation at 37° C.): 12.5 µg/mL

PRT834 (DCADSPCCQQVCTNNPGGYECGCYAGYRLSADGCGCE; listed as Homo sapiens)
MIC (μg/mL) P. vulgaris (Proteus vulgaris; [1]): 12.5 µg/mL
MIC (μg/mL) S. marcescens (Serratia marcescens; [1]): 25 µg/mL
MIC (μg/mL) E. coli BL21 (E. coli BL21; [1]): 25 µg/mL
MIC (μg/mL) P. aeruginosa (Pseudomonas aeruginosa; [1]): 12.5 µg/mL
MIC (μg/mL) A. hydrophila (Aeromonas hydrophila; [1]): 25 µg/mL
MIC (E. coli DH5α): 50 µg/mL
MIC (μg/mL) E. cloacae (Enterobacter cloacae; [1]): 50 µg/mL
MIC (μg/mL) M. catarrhalis (Moraxella catarrhalis; [1]): 25 µg/mL
MIC (μg/mL) C. diversus (Citrobacter diversus; [1]): 12.5 µg/mL
MIC (μg/mL) K. pneumonia (Klebsiella pneumonia; [1]): 25 µg/mL
MIC (μg/mL) P. mirabilis (Proteus mirabilis; [1]): 50 µg/mL

PRT1222 (SVNYCECNPCFNGGSCQSGVDSYYCHCPFGVFGKHCE; listed as Homo sapiens)
MIC against P. vulgaris (Proteus vulgaris; 5×10^5 CFU/mL): 25 µg/mL
MIC against S. marcescens (Serratia marcescens; 5×10^5 CFU/mL): 12.5 µg/mL
MIC against E. coli BL21 (E. coli BL21; 5×10^5 CFU/mL): 25 µg/mL
MIC against P. aeruginosa (Pseudomonas aeruginosa; 5×10^5 CFU/mL): 50 µg/mL
MIC against A. hydrophila (Aeromonas hydrophila; 5×10^5 CFU/mL): 50 µg/mL
MIC (E. coli DH5α): 12.5 µg/mL
MIC against E. cloacae (Enterobacter cloacae; 5×10^5 CFU/mL): 25 µg/mL
MIC against M. catarrhalis (Moraxella catarrhalis; 5×10^5 CFU/mL): 25 µg/mL
MIC against C. diversus (Citrobacter diversus; 5×10^5 CFU/mL): 12.5 µg/mL
MIC against K. pneumonia (Klebsiella pneumonia; 5×10^5 CFU/mL): 12.5 µg/mL
MIC against P. mirabilis (Proteus mirabilis; 5×10^5 CFU/mL): 50 µg/mL

PRT1207 (DIDECSDGFVQCDSRANCINLPGWYHCECRDGYHDNGMFSPSGESCE; listed as Homo sapiens)
MIC against P. vulgaris (Proteus vulgaris; 5×10^5 CFU/mL): 12.5 µg/mL
MIC against S. marcescens (Serratia marcescens; 5×10^5 CFU/mL): 12.5 µg/mL
MIC against E. coli BL21 (E. coli BL21; 5×10^5 CFU/mL): 25 µg/mL
MIC against P. aeruginosa (Pseudomonas aeruginosa; 5×10^5 CFU/mL): 12.5 µg/mL
MIC against A. hydrophila (Aeromonas hydrophila; 5×10^5 CFU/mL): 25 µg/mL
MIC (E. coli DH5α): 12.5 µg/mL
MIC against E. cloacae (Enterobacter cloacae; 5×10^5 CFU/mL): 25 µg/mL
MIC against M. catarrhalis (Moraxella catarrhalis; 5×10^5 CFU/mL): 25 µg/mL
MIC against C. diversus (Citrobacter diversus; 5×10^5 CFU/mL): 12.5 µg/mL
MIC against K. pneumonia (Klebsiella pneumonia; 5×10^5 CFU/mL): 12.5 µg/mL
MIC against P. mirabilis (Proteus mirabilis; 5×10^5 CFU/mL): 25 µg/mL

PRT1020 (SRQTCANNRHQCSVHAECRDYATGFCCSCVAGYTGNGRQCV; listed as Homo sapiens)
MIC (Proteus vulgaris; 10 h cultivation at 37° C.): 50 µg/mL
MIC (Serratia marcescens; 10 h cultivation at 37° C.): 25 µg/mL
MIC (E. coli BL21; 10 h cultivation at 37° C.): 12.5 µg/mL
MIC (Pseudomonas aeruginosa; 10 h cultivation at 37° C.): 12.5 µg/mL
MIC (Aeromonas hydrophila; 10 h cultivation at 37° C.): 12.5 µg/mL
MIC (E. coli DH5α): 12.5 µg/mL
MIC (Enterobacter cloacae; 10 h cultivation at 37° C.): 12.5 µg/mL
MIC (Moraxella catarrhalis; 10 h cultivation at 37° C.): 12.5 µg/mL
MIC (Citrobacter diversus; 10 h cultivation at 37° C.): 12.5 µg/mL
MIC (Klebsiella pneumonia; 10 h cultivation at 37° C.): 25 µg/mL
MIC (Proteus mirabilis; 10 h cultivation at 37° C.): 12.5 µg/mL

PRT799 (FHACSCHNGASCSAEDGACHCTPGWTGLFCT; listed as Homo sapiens)
MIC (μg/mL) P. vulgaris (Proteus vulgaris; [1]): 50 µg/mL
MIC (μg/mL) S. marcescens (Serratia marcescens; [1]): 25 µg/mL
MIC (μg/mL) E. coli BL21 (E. coli BL21; [1]): 12.5 µg/mL
MIC (μg/mL) P. aeruginosa (Pseudomonas aeruginosa; [1]): 12.5 µg/mL
MIC (μg/mL) A. hydrophila (Aeromonas hydrophila; [1]): 12.5 µg/mL
MIC (E. coli DH5α): 25 µg/mL
MIC (μg/mL) E. cloacae (Enterobacter cloacae; [1]): 5 µg/mL
MIC (μg/mL) M. catarrhalis (Moraxella catarrhalis; [1]): 12.5 µg/mL
MIC (μg/mL) C. diversus (Citrobacter diversus; [1]): 12.5 µg/mL
MIC (μg/mL) K. pneumonia (Klebsiella pneumonia; [1]): 12.5 µg/mL
MIC (μg/mL) P. mirabilis (Proteus mirabilis; [1]): 12.5 µg/mL

PRT1100 (DIDECASDPCVNGGLCQDLLNKFQCLCDVAFAGERCE; listed as Homo sapiens)
MIC P. vulgaris (Proteus vulgaris; [2]): 25 µg/mL
MIC S. marcescens (Serratia marcescens; [2]): 12.5 µg/mL
MIC E. coli BL21 (E. coli BL21; [2]): 25 µg/mL
MIC P. aeruginosa (Pseudomonas aeruginosa; [2]): 100 µg/mL
MIC A. hydrophila (Aeromonas hydrophila; [2]): 100 µg/mL
MIC (E. coli DH5α): 12.5 µg/mL
MIC E. cloacae (Enterobacter cloacae; [2]): 12.5 µg/mL
MIC M. catarrhalis (Moraxella catarrhalis; [2]): 12.5 µg/mL
MIC C. diversus (Citrobacter diversus; [2]): 12.5 µg/mL
MIC K. pneumonia (Klebsiella pneumonia; [2]): 25 µg/mL
MIC P. mirabilis (Proteus mirabilis; [2]): 12.5 µg/mL
